Tested on: AMPK
Experiment: AMPK enzyme activity assay (Delfia technology, AMARA peptide substrate)
Type: biochemical
Conditions: compound at 30 μM vs AMP at 200 μM
Outline: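 Value is the ratio of compound (30 μM) to AMP (200 μM) response, each as % of basal control. Phosphorylation of the AMARA peptide after AMPK addition was read by Delfia with an anti-phosphoserine antibody.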

| SMILES | Activity: Ratio between the % of control (basal activity) of compound of formula (1) at 30 μM and the % of control (basal activity) of AMP (natural substrate) at 200 μM |
| --- | --- |
| COc1ccc(C2(C)C(=O)Nc3sc(Cl)c(-c4cccc(F)c4)c3C2=O)cc1 (stereo not drawn) [No 146, 2-chloro-3-(3-fluorophenyl)-5-(4-methoxyphenyl)-5-methyl-7H-thieno[2,3-b]pyridine-4,6-dione] | A (0%<A<50%) |
| O=C1Nc2scc(-c3ccccc3O)c2C(=O)C1(F)c1ccccc1 (stereo not drawn) [No 147, 5-fluoro-3-(2-hydroxyphenyl)-5-phenyl-7H-thieno[2,3-b]pyridine-4,6-dione] | C (C≧75%) |
| CC1(c2cccc(S(C)(=O)=O)c2)C(=O)Nc2sc(Cl)c(-c3cccc(F)c3)c2C1=O (stereo not drawn) [No 148, 2-chloro-3-(3-fluorophenyl)-5-methyl-5-(3-methyl-sulfonylphenyl)-7H-thieno[2,3-b]pyridine-4,6-dione] | A (0%<A<50%) |
| CC1(c2ccc(S(C)(=O)=O)cc2)C(=O)Nc2sc(Cl)c(-c3cccc(F)c3)c2C1=O (stereo not drawn) [No 149, 2-chloro-3-(3-fluorophenyl)-5-methyl-5-(4-methyl-sulfonylphenyl)-7H-thieno[2,3-b]pyridine-4,6-dione] | A (0%<A<50%) |
| COc1ccc(C2(C)C(=O)Nc3sc(Cl)c(-c4ccc(C)cc4)c3C2=O)cc1 (stereo not drawn) [No 150, 2-chloro-5-(4-methoxyphenyl)-5-methyl-3-(p-tolyl)-7H-thieno[2,3-b]pyridine-4,6-dione] | A (0%<A<50%) |
| O=C1Nc2sc(Cl)c(-c3cc(F)ccc3OCc3ccccc3)c2C(=O)C1(F)c1ccccc1 (stereo not drawn) [No 151, 3-(2-benzyloxy-5-fluoro-phenyl)-2-chloro-5-fluoro-5-phenyl-7H-thieno[2,3-b]pyridine-4,6-dione] | A (0%<A<50%) |
| COc1ccc(OCc2ccccc2)c(-c2csc3c2C(=O)C(F)(c2ccccc2)C(=O)N3)c1 (stereo not drawn) [No 152, 3-(2-benzyloxy-5-methoxy-phenyl)-5-fluoro-5-phenyl-7H-thieno[2,3-b]pyridine-4,6-dione] | B (50%≦B<75%) |
| COc1ccc(-c2c(Cl)sc3c2C(=O)C(C)(c2ccccc2F)C(=O)N3)cc1 (stereo not drawn) [No 153, 2-chloro-5-(2-fluorophenyl)-3-(4-methoxyphenyl)-5-methyl-7H-thieno[2,3-b]pyridine-4,6-dione] | A (0%<A<50%) |
| COc1ccc(C2(C)C(=O)Nc3sc(Cl)c(-c4cccc(C)c4)c3C2=O)cc1 (stereo not drawn) [No 155, 2-chloro-5-(4-methoxyphenyl)-5-methyl-3-(m-tolyl)-7H-thieno[2,3-b]pyridine-4,6-dione] | A (0%<A<50%) |
| Cc1cccc(-c2c(Cl)sc3c2C(=O)C(C)(c2ccccc2F)C(=O)N3)c1 (stereo not drawn) [No 156, 2-chloro-5-(2-fluorophenyl)-5-methyl-3-(m-tolyl)-7H-thieno[2,3-b]pyridine-4,6-dione] | A (0%<A<50%) |
| O=C1Nc2sc(Cl)c(-c3cccc(F)c3)c2C(=O)C1(F)c1ccccc1 (stereo not drawn) [No 157, 2-chloro-5-fluoro-3-(3-fluorophenyl)-5-phenyl-7H-thieno[2,3-b]pyridine-4,6-dione] | C (C≧75%) |
| Cc1cccc(-c2c(Cl)sc3c2C(=O)C(C)(c2cccc(F)c2)C(=O)N3)c1 (stereo not drawn) [No 158, 2-chloro-5-(3-fluorophenyl)-5-methyl-3-(m-tolyl)-7H-thieno[2,3-b]pyridine-4,6-dione] | A (0%<A<50%) |

Source: US9365584B2, “Thieno [2,3-B] pyridinedione activators of AMPK and therapeutic uses thereof” (Poxel, priority 2009, dated 2016)
